Consider one compound from patent US20040087651A1, “Monoterpene as a chemopreventive agent for regression of mammalian nervous system cell tumors, use of monoterpene for causing regression and inhibition of nervous system cell tumors, and method for administration of monoterpene perillyl alcohol” (priority 2001, published 2004).

In one data set the test system is A 172 cells. The data set is described as follows: Studies of cell morphology. Type of data set: cell-based, human. To be noted: POH 0,3%. The protocol: (§1) Studies of cell morphology:_A 172 and U 87 cells were cultivated in plates of 6 wells. After 24 hours, perillyl alcohol was added to a final concentration of 0.3% (v/v). Monolayers of cells treated with POH were photographed by an optic microscope inverted NIKON TMS, to register morphological changes induced by the treatment. All studies of cell morphology were performed at least three times to ensure accurate interpretation.

A further data set has as its system U 87 cells. The data set is described as follows: Studies of cell morphology. The class given is cell-based, human. To be noted: POH 0,3%. The protocol:
as §1

The test system of data set [1] is rats. To be noted: rat, in vivo.
Another data set concerns U 87 glial cells. The data set is described as follows: Chorioallantoic Membrane (CAM) Assay, anti-metastatic activity. The class given is in vivo, human. To be noted: U 87 cells exposed to POH 0,3% to 0,03% for 2 hours prior to inoculation in chick embryo chorioallantoic membrane. The protocol:
(§2) After determination of cell concentration applying a Neubauer Chamber, 2×10^6 cells were incubated for 2 hours at 37° C., in D-MEM medium containing concentrations varying from […] or 3% of perillyl alcohol (Sigma), prior to inoculation on CAM.
(§3) b—Chorioallantoic Membrane (CAM) Assay: seven days old fertilized specific pathogen free chick eggs were used in this study. By transillumination in a dark chamber, the egg air camera was marked on the eggshell. The following procedures were done under aseptic conditions, in the laminar chamber. An opening was made in the upper part and another in the lateral part of the eggshell, and the air camera was mechanically displaced to the upper side by applying negative pressure at the lateral opening. Both openings were sealed. In the upper part of the egg, a small window was made. On the upper CAM, the cells were inoculated, with a sterile pipette. Eggs 1, 2 and 3 received 2×10^6 cells previously treated with POH (0.03, 0.3 and 3%, respectively) diluted D-MEM medium. Egg 4 received 2×10^6 untreated cells in D-MEM medium. Egg 5 was used as negative control (no cells inoculated). The windows were sealed and the eggs were kept at 37° C. and 60% humidity, in the horizontal position, without agitation, for seven days
(§4) Opening of the eggs. […]

In the next data set the test system is A 172 glial cells. The description is as above. Type of data set: in vivo, human. To be noted: A 172 cells exposed to POH 0,3% to 0,03% for 2 hours prior to inoculation in chick embryo chorioallantoic membrane. The protocol: as §2, §3, §4
A further data set deals with glial cell lines. The data set is described as follows: Inhibition of protein expression in glial cell lines. To be noted: POH treatment in glial cell lines (FIG. 10: A 172). Type of data set: cell-based.
The test system of another data set is human glioma A 172 cells. Put plainly: Cellular Proliferation Assay (MTT). The class given is cell-based. The protocol: (§5) a—Cell Culture: Human malignant gliomas U 87 and A 172 cells were obtained from the American Type Culture Collection (ATCC), and grown as monolayers on the at 37° C., in Dulbecco's Modified Eagle Medium supplemented with 0.2 mM nonessential amino acids, 10% (v/v) fetal calf serum, penicillin (100 UI/mL), streptomycin ([…]) and amphotericin B (Fungizone, […]). For subcultures, confluent monolayers were gently washed with Dulbecco's phosphate—buffered saline (PBS, pH 7.2), and after a short exposure to trypsin, the cells were transferred to a new bottle containing complete growth media.
(§6) Cellular Proliferation Assay: the target cells (human glioma U 87 and A 172) were cultivated in plates of 96 wells at a concentration of 5.0×10^5 cells by well. After the cellular adherence the cells were placed in multiple POH dilutions, in triplicates, having as positive control cells growing with detergent Tween 20. The negative control were cells growing without any additive. Concentrations varying from 30%, 3%, 0.03%, 0.003%, 0.0003% (v/v) were applied and after 24 hours of incubation 1.0 mg of hydrogen acceptor 3 (4,5 dimethylthiazol-2yi)-2-5 diphenyltetrazolium bromide (MTT) solution was added in each well, and the culture was incubated for additional 3 hours. […] An ELISA reader with 490 nm filter was used to read the results.

In the next data set the test system is human glioma U 87 cells. Put plainly: Cellular Proliferation Assay (MTT). The class given is cell-based. The protocol:
as §5, §6

In a further data set the test system is glial cell C6. The data set is described as follows: Effect on glial cell C6 growth. Type of data set: cell-based, rats. To be noted: various concentrations (FIG. 2).
For data set [2], the system named is rats. To be noted: perillyl alcohol diet; cited from earlier work.

As for `C=C(C)[C@@H]1CC=C(CO)CC1` [perillyl alcohol, p-metha, 1,7-diene-6-ol or 4-isopropenyl-cyclohexanecarbinol], the cell morphology entry with A 172 cells is given as “changes in morphology, indicative of cellular differentiation”; in the data set on U 87 cells, “changes in morphology, indicative of cellular differentiation”. In the data set with rats [1], the “toxicity in tissues of lung, liver, and brain” value is “no toxicity”. In addition, the anti-metastatic activity entry with U 87 glial cells and in the data set on A 172 glial cells was “anti metastatic activity” each time. Besides, the protein expression result in the data set with glial cell lines was “inhibition protein expression”. Further, the “proliferation of glioma cell lines” value in the data set with human glioma A 172 cells (POH 30%, 3%, 0,3% and 0,03%, preliminary in vitro studies) is reported as “inhibits the proliferation”; in the data set with human glioma U 87 cells (U 87, POH 30%, 3%, 0,3% and 0,03%, preliminary in vitro studies), “inhibits the proliferation”. The cell growth entry is recorded as “significantly inhibited cell growth in a dose dependent manner” with human glioma A 172 cells (various concentrations (FIG. 4)); “significantly inhibited cell growth in a dose dependent manner” with human glioma U 87 cells (U87, various concentrations (FIG. 3)); “significantly inhibited cell growth in a dose dependent manner” in the data set on glial cell C6. Moreover, the maximum dose tolerated with rats [2] was 2,5%.
